Here are results for 21 compounds from article PMC5867211 (Archives of toxicology, 2017).

One data set relates to humans. The conditions noted are these: previously categorized; ref Xu et al. 2008; cited from earlier work.
Data set [1] has as its system Hep3B human hepatoma cell line. Put plainly: 2D cell viability. It counts as cell-based. The conditions noted are these: 72 h, read-out: IC50, 2D cultured Hep3B cells in 96-well plates.
The conditions of data set [2]: read-out: 1000* Human Cmax; 1000-fold in vivo human Cmax; cited from earlier work.
The next data set in a line: in vitro. The conditions noted are these: human.
The test system of data set [3] is Hep3B cells. Put plainly: Metabolism-induced toxicity on DataChip/MetaChip. The conditions noted are these: for CC50: Homo sapiens, Hep3B; for Change of toxicity in All Mix vs. parent compound: All Mix vs. no enzyme, 3D Hep3B on chip.
Data set [4] concerns Hep3B cells.

“Also recorded” adds a separate entry of the source. Read-outs that look alike come from different tables or passages of the source.

On to `O=C1CC2(CCCC2)CC(=O)N1CCCCN1CCN(c2ncccn2)CC1` [Buspirone], for which the DILI category entry in the data set with humans is listed as “N1”. In addition, in data set [1] (Homo sapiens, Hep3B), the half-inhibitory concentration (IC50) is 170 ± 74 µM.

For `COc1ccccc1Oc1c(NS(=O)(=O)c2ccc(C(C)(C)C)cc2)nc(-c2ncccn2)nc1OCCO` [Bosentan], the DILI category entry in the data set with humans is recorded as “P1”. The concentration for half-maximal inhibition (IC50) in data set [1] (Homo sapiens, Hep3B) came to 55 ± 20 µM.

Regarding `Nc1ccc(/N=N/c2ccccc2)c(N)n1` [Phenazopyridine], the DILI category result with humans was “P2”. Further, the IC50 in data set [1] (Homo sapiens, Hep3B) stood at 55 ± 13 µM. Also, in data set [2], the maximum concentration (Cmax) is 124 nM.

Regarding `CNCCC(Oc1ccc(C(F)(F)F)cc1)c1ccccc1` (stereo not shown) [Fluoxetine], the DILI category result in the data set on humans is reported as “N3”. The Cmax in data set [2] was 97 nM.

For the compound `CC(Cc1ccc(O)cc1)NCC(O)c1cc(O)cc(O)c1` (stereo not shown) [Fenoterol], the DILI category result in the data set with humans was “P2”. Also, the half-maximal inhibitory concentration (IC50) in “in vitro” came out at 290 ± 140 µM; in data set [1] (Homo sapiens, Hep3B), 300 µM. Besides, the CC50 in the data set with Hep3B cells [3] (read-out: IC50, 3D cultured Hep3B cells on the Data/MetaChip, All Mix) came to 1200 µM; in the data set on Hep3B cells [3] (read-out: IC50, 3D cultured Hep3B cells on the Data/MetaChip, HLM) it was 1200 µM; with Hep3B cells [3] (read-out: IC50, 3D cultured Hep3B cells on the Data/MetaChip, No Enzyme), 1200 µM. Besides, in data set [2], the Cmax is 0.6 nM.

`CCc1oc2ccccc2c1C(=O)c1cc(Br)c(O)c(Br)c1` [Benzbromarone]: the DILI category result in the data set on humans is listed as “P1”. Also, the IC50 in data set [1] (Homo sapiens, Hep3B) came out at 58 ± 22 µM.

Take `CC(C)C(=O)Nc1ccc([N+](=O)[O-])c(C(F)(F)F)c1` [Flutamide]: the DILI category result in the data set on humans is listed as “P2”. In addition, the “Change of toxicity in All Mix vs. parent compound” value with Hep3B cells [3] is “statistically less toxicity”. Further, the IC50 in data set [1] (Homo sapiens, Hep3B) is 45 ± 18 µM.

Regarding `CN(C)CCCN1c2ccccc2Sc2ccccc21` [Promazine], the DILI category result with humans is recorded as “N3”. Moreover, the concentration for half-maximal inhibition (IC50) in data set [1] (Homo sapiens, Hep3B) is 21 ± 3 µM. Besides, the maximum concentration (Cmax) in data set [2] is 490 nM.

Regarding `CCCNC(=O)NS(=O)(=O)c1ccc(Cl)cc1` [Chlorpropamide], in the data set on humans, the DILI category entry is “P2”. The IC50 in data set [1] (Homo sapiens, Hep3B) stood at 300 µM. In data set [2], the Cmax is 123000 nM.

As to `Cc1ccc(N(CC2=NCCN2)c2cccc(O)c2)cc1` [Phentolamine], in data set [1] (Homo sapiens, Hep3B), the IC50 stood at 48 ± 9 µM.

Take `O=c1n(CCCN2CCN(c3cccc(Cl)c3)CC2)nc2ccccn12` [Trazodone]: the DILI category result in the data set with humans was “P2”.

Take `C[C@@](Cc1ccc(O)c(O)c1)(NN)C(=O)O` [Carbidopa]: the “Change of toxicity in P450 Mix vs. parent compound” value in the data set with Hep3B cells [4] is “activated”. Also, in the data set with humans, the DILI category result was “N1”. Besides, the “Change of toxicity in All Mix vs. parent compound” value in the data set with Hep3B cells [3] is recorded as “augmented toxicity”. Moreover, the IC50 in data set [1] (Homo sapiens, Hep3B) came to 46 ± 28 µM. Moreover, the Cmax in data set [2] is 660 nM.

For `CC(CCc1ccccc1)NCC(O)c1ccc(O)c(C(N)=O)c1` (stereo not shown) [Labetalol], the DILI category entry in the data set on humans is reported as “P2”. Besides, the IC50 in data set [1] (Homo sapiens, Hep3B) was determined as 150 ± 34 µM.

For `CC(=O)Nc1ccc(O)cc1` [Acetaminophen], the “Change of toxicity in P450 Mix vs. parent compound” value in the data set on Hep3B cells [4] is recorded as “metabolism-induced toxicity”. Moreover, in the data set with humans, the DILI category entry was “P1”. The “Change of toxicity in All Mix vs. parent compound” value in the data set with Hep3B cells [3] is on record as “metabolism-induced toxicity”. For the same compound, the concentration for half-maximal inhibition (IC50) in data set [1] (Homo sapiens, Hep3B) turned out to be 300 µM.

Take `Cc1cccc(Nc2ccccc2C(=O)O)c1C` [Mefenamic acid]: in the data set with humans, the DILI category result was “P2”. The “Change of toxicity in All Mix vs. parent compound” value in the data set on Hep3B cells [3] is given as “statistically less toxicity”. For the same compound, in data set [1] (Homo sapiens, Hep3B), the 50% inhibitory concentration (IC50) was 260 ± 74 µM.

In the case of `C[C@]12CC[C@@H]3c4ccc(O)cc4CC[C@H]3[C@@H]1CC[C@@H]2O` [Estradiol], in the data set with humans, the DILI category result is listed as “N3”. The IC50 in data set [1] (Homo sapiens, Hep3B) came out at 53 ± 20 µM. Also, in data set [2], the peak concentration (Cmax) was 0.1 nM.

Regarding `CC1=C(CC(=O)O)c2cc(F)ccc2/C1=C\c1ccc([S+](C)[O-])cc1` (stereo not shown) [Sulindac], the DILI category result in the data set on humans was “P2”. For the same compound, the “Change of toxicity in All Mix vs. parent compound” value in the data set with Hep3B cells [3] is given as “statistically less toxicity; also recorded: increased IC50”. Further, the 50% inhibitory concentration (IC50) in data set [1] (Homo sapiens, Hep3B) came out at 300 µM.

For `O=C(O)Cc1ccccc1Nc1c(Cl)cccc1Cl` [Diclofenac], the DILI category result in the data set with humans is “P2”. For the same compound, in data set [1] (Homo sapiens, Hep3B), the half-inhibitory concentration (IC50) is 120 ± 51 µM.

Take `CN(C)CCCN1c2ccccc2CCc2ccccc21` [Imipramine]: the DILI category entry in the data set with humans was “P2”. Further, the half-maximal inhibitory concentration (IC50) in data set [1] (Homo sapiens, Hep3B) was found to be 5 ± 2 µM.

Regarding `CCCOc1ccc2[nH]c(NC(=O)OC)nc2c1` [Oxybendazole], the DILI category entry with humans is recorded as “O1”. In the data set on Hep3B cells [3], the “Change of toxicity in All Mix vs. parent compound” value is given as “augmented toxicity”. Besides, the IC50 in data set [1] (2D monolayer, no enzyme, MTT) is 24 ± 18 µM. In addition, the Cmax in data set [2] was 30 nM.

Regarding `Cc1nc2n(c(=O)c1CCN1CCC(c3noc4cc(F)ccc34)CC1)CCCC2` [Risperidone], the DILI category entry in the data set with humans was “P2”.
